Square brackets hold non-standard residues; d marks the D form. Peptide text beside a SMILES is read from it. dGly(5-dibenzosuberyl) = N[C@@H](C(=O)O)C1c2ccccc2CCc2ccccc21

The term IC50 denotes the concentration at which inhibition is half-maximal. A high value points to weaker potency in that assay.

The target of this test is T1, Endothelin-1 receptor (Sus scrofa, UniProt Q29010).
T1 sequence (Q29010 whole entry): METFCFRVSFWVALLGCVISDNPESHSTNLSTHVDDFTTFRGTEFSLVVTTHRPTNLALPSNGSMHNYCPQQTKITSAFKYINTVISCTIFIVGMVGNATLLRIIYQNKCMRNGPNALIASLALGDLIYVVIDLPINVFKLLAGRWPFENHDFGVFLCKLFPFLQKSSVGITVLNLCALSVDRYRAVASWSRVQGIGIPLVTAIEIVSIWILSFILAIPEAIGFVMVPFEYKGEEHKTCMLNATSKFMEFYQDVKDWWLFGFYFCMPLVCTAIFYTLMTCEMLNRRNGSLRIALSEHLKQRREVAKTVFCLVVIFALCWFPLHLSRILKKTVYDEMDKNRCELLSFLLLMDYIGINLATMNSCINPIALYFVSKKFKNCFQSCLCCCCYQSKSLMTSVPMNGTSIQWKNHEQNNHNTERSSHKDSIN
As to the kind of experiment: Antagonist activity against ET-A from porcine heart membranes. The class given is functional, tissue-based.
`CC[C@H](C)[C@H](NC(=O)[C@H](CC(=O)O)NC(=O)[C@@H](NC(=O)[C@H](NC(C)=O)C1c2ccccc2CCc2ccccc21)[C@@H](C)CC)C(=O)N[C@H](C(=O)N[C@@H](Cc1c[nH]c2ccccc12)C(=O)O)[C@@H](C)CC` came in with an IC50 of 21 nM.
In the case of `CC[C@H](C)[C@H](NC(=O)[C@H](CC(=O)O)NC(=O)[C@@H](NC(=O)[C@H](NC(C)=O)C1c2ccccc2CCc2ccccc21)C(C)C)C(=O)N[C@H](C(=O)N[C@@H](Cc1c[nH]c2ccccc12)C(=O)O)[C@@H](C)CC`, the IC50 is 12 nM. This IC50 lies about 1.8-fold lower than the previous one.
The same measure for `CC[C@H](C)[C@H](NC(=O)[C@@H](NC(=O)[C@H](CC(=O)O)NC(=O)[C@H](CC(C)C)NC(=O)[C@H](NC(C)=O)C1c2ccccc2CCc2ccccc21)C(C)(C)C)C(=O)N[C@@H](Cc1c[nH]c2ccccc12)C(=O)O`: 5 nM; for `CC[C@H](C)[C@H](NC(=O)[C@H](CC(=O)O)NC(=O)[C@H](CCCN=C(N)N)NC(=O)[C@H](NC(C)=O)C1c2ccccc2CCc2ccccc21)C(=O)N[C@H](C(=O)N[C@@H](Cc1c[nH]c2ccccc12)C(=O)O)[C@@H](C)CC` (Ac-[dGly(5-dibenzosuberyl)]RDIIW-OH): 3 nM.
For `CC[C@H](C)[C@H](NC(=O)[C@H](CC(=O)O)NC(=O)[C@H](CCSC)NC(=O)[C@H](NC(C)=O)C1c2ccccc2CCc2ccccc21)C(=O)N[C@H](C(=O)N[C@@H](Cc1c[nH]c2ccccc12)C(=O)O)[C@@H](C)CC` the value was 8 nM; for `CC[C@H](C)[C@H](NC(=O)[C@H](CC(=O)O)NC(=O)[C@H](Cc1ccccc1)NC(=O)[C@H](NC(C)=O)C1c2ccccc2CCc2ccccc21)C(=O)N[C@H](C(=O)N[C@@H](Cc1c[nH]c2ccccc12)C(=O)O)[C@@H](C)CC`, 24 nM; for `CC[C@H](C)[C@H](NC(=O)[C@@H](NC(=O)[C@H](CC(=O)O)NC(=O)[C@H](CCC(N)=O)NC(=O)[C@H](NC(C)=O)C1c2ccccc2CCc2ccccc21)C(C)C)C(=O)N[C@@H](Cc1c[nH]c2ccccc12)C(=O)O`, 1.7 nM.
`CC[C@H](C)[C@H](NC(=O)[C@H](CC(=O)O)NC(=O)[C@H](CC(N)=O)NC(=O)[C@H](NC(C)=O)C1c2ccccc2CCc2ccccc21)C(=O)N[C@H](C(=O)N[C@@H](Cc1c[nH]c2ccccc12)C(=O)O)[C@@H](C)CC` returned an IC50 of 3 nM.
The same measure for `CC[C@H](C)[C@H](NC(=O)[C@H](CC(=O)O)NC(=O)[C@H](Cc1ccc(O)cc1)NC(=O)[C@H](NC(C)=O)C1c2ccccc2CCc2ccccc21)C(=O)N[C@H](C(=O)N[C@@H](Cc1c[nH]c2ccccc12)C(=O)O)[C@@H](C)CC`: 11 nM.
For `CC[C@H](C)[C@H](NC(=O)[C@H](CC(=O)O)NC(=O)[C@H](CCC(N)=O)NC(=O)[C@H](NC(C)=O)C1c2ccccc2CCc2ccccc21)C(=O)N[C@H](C(=O)N[C@@H](Cc1c[nH]c2ccccc12)C(=O)O)[C@@H](C)CC` the value was 2 nM.
`CC[C@H](C)[C@H](NC(=O)[C@H](CC(=O)O)NC(=O)[C@H](Cc1c[nH]cn1)NC(=O)[C@H](NC(C)=O)C1c2ccccc2CCc2ccccc21)C(=O)N[C@H](C(=O)N[C@@H](Cc1c[nH]c2ccccc12)C(=O)O)[C@@H](C)CC` registered a concentration for half-maximal inhibition (IC50) of 50 nM.
For `CC[C@H](C)[C@H](NC(=O)[C@H](CC(=O)O)NC(=O)CNC(=O)[C@H](NC(C)=O)C1c2ccccc2CCc2ccccc21)C(=O)N[C@H](C(=O)N[C@@H](Cc1c[nH]c2ccccc12)C(=O)O)[C@@H](C)CC` the value was 19 nM; for `CC[C@H](C)[C@H](NC(=O)[C@@H](NC(=O)[C@H](CC(=O)O)NC(=O)[C@H](CC(N)=O)NC(=O)[C@H](NC(C)=O)C1c2ccccc2CCc2ccccc21)C(C)C)C(=O)N[C@@H](Cc1c[nH]c2ccccc12)C(=O)O`, 4 nM.
The same measure for `CC[C@H](C)[C@H](NC(=O)[C@H](CC(=O)O)NC(=O)[C@H](CCC(=O)O)NC(=O)[C@H](NC(C)=O)C1c2ccccc2CCc2ccccc21)C(=O)N[C@H](C(=O)N[C@@H](Cc1c[nH]c2ccccc12)C(=O)O)[C@@H](C)CC` (Ac-[dGly(5-dibenzosuberyl)]EDIIW-OH): 11 nM.

Values taken from ChEMBL document CHEMBL1151010, “A case study of combinatorial libraries: Endothelin receptor antagonist hexapeptides” (Bioorg Med Chem Lett, 1995).
